For one assay, the target named is T1, SYK kinase (Homo sapiens, UniProt P43405).
T1 construct: purchased Invitrogen, Carlsbad
In words: SYK Assay (OMNIA KINASE ASSAY, SOX peptide fluorescence). The assay is classed as biochemical. To be noted: apparent Ki calculated from the IC50 using the Cheng-Prusoff equation; 1 mM ATP, 30° C.; read-out: SYK Activities: Ki. An outline of the steps: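 Continuous Omnia assay: SYK phosphorylation of SOX-labelled Tyr 7 peptide (10 µM) with 1 mM ATP and 0.2 mM DTT at 30 °C. Fluorescence (ex 360/em 485 nm) read every 30 s for 30 min. Reaction velocity versus inhibitor concentration gives IC50, converted to apparent Ki by Cheng-Prusoff.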

The target in a further assay is LRRK2 (Homo sapiens, UniProt Q5S007). In words: LRRK2-LRRK2 G2019S-Assay (LanthaScreen Eu Kinase Binding Assay). As to conditions: 5 nM LRRK2 or their mutants, 10 nM tracer 236, RT 1 h; read-out: LRRK2 Activities: IC50. The essentials:
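TR-FRET tracer-displacement binding assay with 5 nM LRRK2 or mutant, 2 nM Eu-anti-GST antibody and 10 nM tracer 236 in kinase buffer A. Incubated 1 h at RT; 665/615 nm emission ratio read (ex 340 nm). IC50 from variable-slope sigmoidal fit.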
(TR-FRET usually uses a lanthanide donor and a delayed reading to cut background.)

Each structure is given as a SMILES string.

Sequence of LRRK2 (Q5S007 970-2527 limits assumed): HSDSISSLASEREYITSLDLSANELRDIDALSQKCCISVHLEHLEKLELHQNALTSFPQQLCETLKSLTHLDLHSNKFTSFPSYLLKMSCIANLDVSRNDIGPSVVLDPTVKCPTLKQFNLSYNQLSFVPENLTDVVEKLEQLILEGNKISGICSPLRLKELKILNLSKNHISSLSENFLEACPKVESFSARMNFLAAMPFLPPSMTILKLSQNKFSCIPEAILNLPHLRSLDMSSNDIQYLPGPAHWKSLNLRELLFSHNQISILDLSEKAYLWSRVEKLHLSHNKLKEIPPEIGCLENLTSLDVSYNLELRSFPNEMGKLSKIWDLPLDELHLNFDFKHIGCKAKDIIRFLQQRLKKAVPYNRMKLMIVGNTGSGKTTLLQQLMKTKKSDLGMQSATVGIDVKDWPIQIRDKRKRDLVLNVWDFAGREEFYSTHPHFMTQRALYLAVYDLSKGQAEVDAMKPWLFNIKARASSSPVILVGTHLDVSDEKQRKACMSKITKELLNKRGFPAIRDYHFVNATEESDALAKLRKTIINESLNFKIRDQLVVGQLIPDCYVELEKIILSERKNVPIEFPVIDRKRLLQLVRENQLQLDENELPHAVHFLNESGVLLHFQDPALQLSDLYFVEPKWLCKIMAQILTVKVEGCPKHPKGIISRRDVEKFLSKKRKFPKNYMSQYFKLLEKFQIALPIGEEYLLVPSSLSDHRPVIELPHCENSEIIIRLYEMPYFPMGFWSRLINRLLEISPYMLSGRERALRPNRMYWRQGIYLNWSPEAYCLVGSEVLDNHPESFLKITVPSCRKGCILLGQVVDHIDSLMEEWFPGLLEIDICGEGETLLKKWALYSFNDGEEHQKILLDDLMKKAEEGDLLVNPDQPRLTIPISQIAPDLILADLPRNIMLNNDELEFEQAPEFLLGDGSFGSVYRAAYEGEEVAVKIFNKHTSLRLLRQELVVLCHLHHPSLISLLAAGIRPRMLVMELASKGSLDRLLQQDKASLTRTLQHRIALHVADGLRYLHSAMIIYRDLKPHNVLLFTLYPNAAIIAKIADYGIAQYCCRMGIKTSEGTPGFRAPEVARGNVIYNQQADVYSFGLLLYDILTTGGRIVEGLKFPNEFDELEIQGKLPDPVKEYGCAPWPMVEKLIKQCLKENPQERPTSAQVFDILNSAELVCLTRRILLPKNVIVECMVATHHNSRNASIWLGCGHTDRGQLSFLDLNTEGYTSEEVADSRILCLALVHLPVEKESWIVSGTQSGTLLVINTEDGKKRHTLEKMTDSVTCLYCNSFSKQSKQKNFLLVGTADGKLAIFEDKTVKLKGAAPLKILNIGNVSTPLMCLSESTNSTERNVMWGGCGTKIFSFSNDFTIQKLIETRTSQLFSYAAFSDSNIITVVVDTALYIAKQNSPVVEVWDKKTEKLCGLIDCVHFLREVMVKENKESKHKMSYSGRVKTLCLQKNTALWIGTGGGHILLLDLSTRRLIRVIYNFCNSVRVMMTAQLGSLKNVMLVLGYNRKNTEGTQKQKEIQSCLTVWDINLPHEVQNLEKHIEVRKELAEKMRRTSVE

What is called IC50 is the point on the concentration scale where inhibition reaches its midpoint. As for `O=C(c1ccc(Nc2nc(-c3ccsc3)nc3cn[nH]c23)cc1)N1CCOCC1` [Example #157, morpholino(4-((5-(thiophen-3-yl)-1H-pyrazolo[4,3-d]pyrimidin-7-yl)amino)phenyl)methanone], the Ki at SYK kinase is 10 to 100 nM. The IC50 at LRRK2 lay within 100 to 1000 nM.

On to `O=C1CSc2ccc(Nc3nc(-c4ccsc4)nc4cn[nH]c34)cc2N1` [Example #158, 6-((5-(thiophen-3-yl)-1H-pyrazolo[4,3-d]pyrimidin-7-yl)amino)-2H-benzo[b][1,4]thiazin-3(4H)-one], for which, at SYK kinase, the Ki was 10 to 100 nM. For the same compound, the IC50 at LRRK2 is 10 to 100 nM.

For the compound `COc1ccc(-c2nc(Nc3ccc4c(c3)NC(=O)CC4)c3[nH]ncc3n2)cc1` [Example #159, 7-((5-(4-methoxyphenyl)-1H-pyrazolo[4,3-d]pyrimidin-7-yl)amino)-3,4-dihydroquinolin-2(1H)-one], the Ki on SYK kinase is 10 to 100 nM. Also, on LRRK2, the IC50 is 100 to 1000 nM.

With `O=C1COc2ccc(Nc3nc(-c4cccs4)nc4cn[nH]c34)cc2N1` [Example #162, 6-((5-(thiophen-2-yl)-1H-pyrazolo[4,3-d]pyrimidin-7-yl)amino)-2H-benzo[b][1,4]oxazin-3(4H)-one], the Ki on SYK kinase was below 10 nM. In addition, the IC50 at LRRK2 was in the range of 100 to 1000 nM.

For the compound `COc1ccc(-c2nc(Nc3ccc4c(c3)NC(=O)CCC4)c3[nH]ncc3n2)cc1` [Example #164, 8-((5-(4-methoxyphenyl)-1H-pyrazolo[4,3-d]pyrimidin-7-yl)amino)-4,5-dihydro-1H-benzo[b]azepin-2(3H)-one], the Ki at SYK kinase is below 10 nM. The IC50 on LRRK2 was in the range of 10 to 100 nM.

Take `CN1CCCc2ccc(Nc3nc(-c4cccs4)nc4cn[nH]c34)cc21` [Example #166, 1-methyl-N-(5-(thiophen-2-yl)-1H-pyrazolo[4,3-d]pyrimidin-7-yl)-1,2,3,4-tetrahydroquinolin-7-amine]: the Ki on SYK kinase is 10 to 100 nM. The IC50 on LRRK2 lay in the range of 10 to 100 nM.

For `COc1ccc(-c2nc(Nc3ccc(N4CCS(=O)(=O)CC4)cc3)c3[nH]ncc3n2)cc1` [Example #169, 4-(4-((5-(4-methoxyphenyl)-1H-pyrazolo[4,3-d]pyrimidin-7-yl)amino)phenyl)thiomorpholine 1,1-dioxide], the Ki on SYK kinase is below 10 nM. In addition, the IC50 on LRRK2 lay within 100 to 1000 nM.

In the case of `COc1ccc(-c2nc(Nc3ccc(N4CCN(C(C)=O)CC4)cc3)c3[nH]ncc3n2)cc1` [Example #170, 1-(4-(4-((5-(4-methoxyphenyl)-1H-pyrazolo[4,3-d]pyrimidin-7-yl)amino)phenyl)piperazin-1-yl)ethan-1-one], at SYK kinase, the Ki is below 10 nM. Also, the IC50 at LRRK2 lay within 100 to 1000 nM.

As to `COc1ccc(-c2nc(Nc3ccc4c(c3)NC(=O)CO4)c3[nH]ncc3n2)cc1` [Example #171, 6-((5-(4-methoxyphenyl)-1H-pyrazolo[4,3-d]pyrimidin-7-yl)amino)-2H-benzo[b][1,4]oxazin-3(4H)-one], on SYK kinase, the Ki is 10 to 100 nM. For the same compound, the IC50 on LRRK2 fell in the range of 100 to 1000 nM.

Regarding `CC1(C)CNc2cc(Nc3nc(-c4cccs4)nc4cn[nH]c34)ccc2S1` [Example #173, 2,2-dimethyl-N-(5-(thiophen-2-yl)-1H-pyrazolo[4,3-d]pyrimidin-7-yl)-3,4-dihydro-2H-benzo[b][1,4]thiazin-6-amine], on SYK kinase, the Ki is 10 to 100 nM. The IC50 at LRRK2 is 100 to 1000 nM.

`COc1ccc(Nc2nc(-c3cccc(S(N)(=O)=O)c3)nc3cn[nH]c23)cc1OC` [Example #183, 3-(7-((3,4-dimethoxyphenyl)amino)-1H-pyrazolo[4,3-d]pyrimidin-5-yl)benzenesulfonamide]: at SYK kinase, the Ki was below 10 nM. The IC50 on LRRK2 lay in the range of 10 to 100 nM.

Take `CC(=O)N1CCN(c2ccc(Nc3nc(-c4nccs4)nc4cn[nH]c34)cc2)CC1` [Example #184, 1-(4-(4-((5-(thiazol-2-yl)-1H-pyrazolo[4,3-d]pyrimidin-7-yl)amino)phenyl)piperazin-1-yl)ethan-1-one]: on SYK kinase, the Ki is below 10 nM. Also, the IC50 on LRRK2 is 10 to 100 nM.

`COc1ccc(Nc2nc(-c3nccs3)nc3cn[nH]c23)cc1OC` [Example #185, N-(3,4-dimethoxyphenyl)-5-(thiazol-2-yl)-1H-pyrazolo[4,3-d]pyrimidin-7-amine]: the Ki at SYK kinase was 10 to 100 nM. Further, the IC50 at LRRK2 lay within 10 to 100 nM.

With `O=C1CCc2ccc(Nc3nc(-c4nccs4)nc4cn[nH]c34)cc2N1` [Example #186, 7-((5-(thiazol-2-yl)-1H-pyrazolo[4,3-d]pyrimidin-7-yl)amino)-3,4-dihydroquinolin-2(1H)-one], at SYK kinase, the Ki is below 10 nM. In addition, the IC50 at LRRK2 is 100 to 1000 nM.

Consider `COc1ccc(Nc2nc(-c3cccc(-c4nn[nH]n4)c3)nc3cn[nH]c23)cc1OC` [Example #193, 5-(3-(2H-tetrazol-5-yl)phenyl)-N-(3,4-dimethoxyphenyl)-1H-pyrazolo[4,3-d]pyrimidin-7-amine], for which, at SYK kinase, the Ki was below 10 nM. Further, the IC50 at LRRK2 was in the range of 100 to 1000 nM.

In the case of `COc1ccc(Nc2nc(-c3cccc(C(=O)O)c3)nc3cn[nH]c23)cc1OC` [Example #194, 3-(7-((3,4-dimethoxyphenyl)amino)-1H-pyrazolo[4,3-d]pyrimidin-5-yl)benzoic acid], the Ki at SYK kinase is below 10 nM. For the same compound, the IC50 on LRRK2 fell in the range of 100 to 1000 nM.

Take `O=C1CCc2ccc(Nc3nc(-c4cccc(C(=O)O)c4)nc4cn[nH]c34)cc2N1` [Example #195, 3-(7-((2-oxo-1,2,3,4-tetrahydroquinolin-7-yl)amino)-1H-pyrazolo[4,3-d]pyrimidin-5-yl)benzoic acid]: the Ki at SYK kinase is below 10 nM. For the same compound, on LRRK2, the IC50 is 10 to 100 nM.

Consider `O=C1CCc2ccc(Nc3nc(-c4cccc(-c5nn[nH]n5)c4)nc4cn[nH]c34)cc2N1` [Example #196, 7-((5-(3-(2H-tetrazol-5-yl)phenyl)-1H-pyrazolo[4,3-d]pyrimidin-7-yl)amino)-3,4-dihydroquinolin-2(1H)-one], for which the Ki at SYK kinase was below 10 nM. Also, the IC50 on LRRK2 was in the range of 100 to 1000 nM.

Regarding `CN1CCN(c2ccc(Nc3nc(-c4cscn4)nc4cn[nH]c34)cc2)CC1` [Example #197, N-(4-(4-methylpiperazin-1-yl)phenyl)-5-(thiazol-4-yl)-1H-pyrazolo[4,3-d]pyrimidin-7-amine], at SYK kinase, the Ki is below 10 nM. Further, on LRRK2, the IC50 lay within 100 to 1000 nM.

For the compound `CC(=O)N1CCN(c2ccc(Nc3nc(-c4cscn4)nc4cn[nH]c34)cc2)CC1` [Example #198, 1-(4-(4-((5-(thiazol-4-yl)-1H-pyrazolo[4,3-d]pyrimidin-7-yl)amino)phenyl)piperazin-1-yl)ethan-1-one], the Ki at SYK kinase is below 10 nM. For the same compound, the IC50 at LRRK2 was in the range of 100 to 1000 nM.

Regarding `COc1ccc(Nc2nc(-c3cscn3)nc3cn[nH]c23)cc1OC` [Example #199, N-(3,4-dimethoxyphenyl)-5-(thiazol-4-yl)-1H-pyrazolo[4,3-d]pyrimidin-7-amine], the Ki on SYK kinase was 10 to 100 nM. Also, the IC50 on LRRK2 was 10 to 100 nM.

On to `CN1CCN(c2ccc(Nc3nc(-c4cocn4)nc4cn[nH]c34)cc2)CC1` [Example #200, N-(4-(4-methylpiperazin-1-yl)phenyl)-5-(oxazol-4-yl)-1H-pyrazolo[4,3-d]pyrimidin-7-amine], for which the Ki at SYK kinase was below 10 nM. In addition, the IC50 at LRRK2 was in the range of 100 to 1000 nM.

`CC(=O)N1CCN(c2ccc(Nc3nc(-c4cocn4)nc4cn[nH]c34)cc2)CC1` [Example #201, 1-(4-(4-((5-(oxazol-4-yl)-1H-pyrazolo[4,3-d]pyrimidin-7-yl)amino)phenyl)piperazin-1-yl)ethan-1-one]: the Ki at SYK kinase was below 10 nM. Moreover, on LRRK2, the IC50 is 100 to 1000 nM.

With `COc1ccc(Nc2nc(-c3cocn3)nc3cn[nH]c23)cc1OC` [Example #202, N-(3,4-dimethoxyphenyl)-5-(oxazol-4-yl)-1H-pyrazolo[4,3-d]pyrimidin-7-amine], the Ki at SYK kinase is 10 to 100 nM. At LRRK2, the IC50 was in the range of 100 to 1000 nM.

On to `CN1CCN(c2ccc(Nc3nc(-c4ncco4)nc4cn[nH]c34)cc2)CC1` [Example #203, N-(4-(4-methylpiperazin-1-yl)phenyl)-5-(oxazol-2-yl)-1H-pyrazolo[4,3-d]pyrimidin-7-amine], for which the Ki at SYK kinase is below 10 nM. Moreover, on LRRK2, the IC50 lay within 100 to 1000 nM.

Turning to `CC(=O)N1CCN(c2ccc(Nc3nc(-c4ncco4)nc4cn[nH]c34)cc2)CC1` [Example #204, 1-(4-(4-((5-(oxazol-2-yl)-1H-pyrazolo[4,3-d]pyrimidin-7-yl)amino)phenyl)piperazin-1-yl)ethan-1-one], the Ki at SYK kinase is below 10 nM. Further, the IC50 on LRRK2 was 100 to 1000 nM.

On to `COc1ccc(Nc2nc(-c3ncco3)nc3cn[nH]c23)cc1OC` [Example #205, N-(3,4-dimethoxyphenyl)-5-(oxazol-2-yl)-1H-pyrazolo[4,3-d]pyrimidin-7-amine], for which the Ki at SYK kinase is below 10 nM. The IC50 at LRRK2 was 100 to 1000 nM.

Take `O=C1CCc2ccc(Nc3nc(-c4cscn4)nc4cn[nH]c34)cc2N1` [Example #206, 7-((5-(thiazol-4-yl)-1H-pyrazolo[4,3-d]pyrimidin-7-yl)amino)-3,4-dihydroquinolin-2(1H)-one]: the Ki at SYK kinase is below 10 nM. Moreover, the IC50 on LRRK2 was in the range of 10 to 100 nM.

For the compound `O=C1CCc2ccc(Nc3nc(-c4cocn4)nc4cn[nH]c34)cc2N1` [Example #207, 7-((5-(oxazol-4-yl)-1H-pyrazolo[4,3-d]pyrimidin-7-yl)amino)-3,4-dihydroquinolin-2(1H)-one], the Ki on SYK kinase was below 10 nM. Also, on LRRK2, the IC50 was 100 to 1000 nM.

With `O=C1CCc2ccc(Nc3nc(-c4ncco4)nc4cn[nH]c34)cc2N1` [Example #208, 7-((5-(oxazol-2-yl)-1H-pyrazolo[4,3-d]pyrimidin-7-yl)amino)-3,4-dihydroquinolin-2(1H)-one], the Ki on SYK kinase is below 10 nM. Moreover, the IC50 on LRRK2 fell in the range of 100 to 1000 nM.

Values taken from patent US9802937B2, “Substituted pyrazolo{4,3-D}pyrimidines as kinase inhibitors” (ORIGENIS GMBH, priority 2011, dated 2017).
